Data as given in patent publication US7326562B2, “Biological indicator system to detect effectiveness of sterilization” (priority 1999, dated 2008).

Tests used:
[1] = tested on: B. subtilis (Difco) spores; experiment: MALS (DAWN-F) measurement of spores directly after ozone treatment; format: cell-based, Bacillus subtilis; details: 0.3 ppm ozone; for MALS Intensity: no incubation
Text: The MALS instrument used was the DAWN Model F (Wyatt Technology Corp., Santa Barbara, Calif.), which is a flow-through instrument permitting the liquid from a sample to pass through a flow cell while continuously making measurements on the particles as they pass through the cell. Otherwise, the instrument is virtually identical to the DAWN Model B previously described elsewhere herein.
(§1) Ozone model CD-1B (Aqua-Flo, Inc., Baltimore, Md.), equipped with voltage regulator and oxygen flow controls was used to generate an ozone doses of 0.3 to 0.35 ppm in water. Ozone was generated from oxygen, supplied from an oxygen tank with O2 purity of more than about 99.9%. The generator was fitted with a voltage regulator and an oxygen flow regulator which enabled the precise setting of oxygen flow and voltage parameters such that the desired concentration of O3 could be maintained continuously. An oxygen flow rate of 8 ft^3/hr, at 5 psi, and approximately 70 to 80 amps was used to generate the concentrations specified. Excess (head) ozone was passed through a platinum catalyst that converted it back to oxygen where it was released into a vented chemical safety hood.
(§2) By the use of toggle switches, the ozone was directed through glass spargers into either of two specifically designated 2-liter Erlenmeyer flasks containing one liter of distilled water. Either a solution of a test chemical or a suspension of microorganisms, or both, was introduced into the flasks via tubes at the top, which passed into the flasks through rubber stoppers that sealed off the system. Samples could be withdrawn at the bottom of the flasks by opening a stopcock. The ozone concentrations were measured using chemical oxidation of indigo dye using an Ozone Pocket Colorimeter™ per manufacturer's instructions (HACH, Inc., Loveland, Colo.). Bacillus spores, at a concentration of 2×10^6 spores/milliliter were exposed to ozone for treatment times of 0, 5, 10, 15, 20, and 30 minutes, after which times they were measured by MALS, AODC, and CFU, respectively.
(§3) Ozone treatment of microbes is representative of cold sterilization and disinfection. […] Bacillus subtilis spores, at an concentration of 2×10^6 spores/milliliter were exposed to ozone at treatment times of 0, 5, 10, 15, 20, and 30 minutes, at which times they were measured by MALS, AODC, and CFU, respectively. All measurements were made on spores immediately and without the need for incubation. […] These measurements could be correlated directly with the cumulative concentration of ozone with increasing time of exposure. […] For a kill of […] (reduction from 2.1×10^6 to 1.8×10^3 spores/ml) the CT is 0.3 ppm×15 min=4.5. For a kill of 99.995% (reduction from 2.1×10^6 to 10 spores/mL), it is 0.3 ppm×30 min=9.
(§4) Table 2 gives a direct comparison of MALS, AODC, and CFU data for ozone treatment of B. subtilis spores over at 5-minute intervals over a 30-min period. All MALS and AODC measurements were made on spores immediately after treatment, and in the absence of incubation. Spores were plated immediately onto Trypticase Soy Agar after treatment to verify the number of surviving spores (CFU).
(§5) Ozone treatment of microbes is representative of cold sterilization and disinfection.

[2] = tested on: B. subtilis (Difco) spores; experiment: Acridine orange direct counts (AODC) of spores directly after ozone treatment; format: cell-based, Bacillus subtilis; details: 0.3 ppm ozone
Description: One ml samples of the culture to be counted were placed into small conical vials and the cell culture was fixed by adding 30 μl of a 36.5-38.0% formalin solution. After fixing the culture with formalin for at least about 30 minutes, the sample was either refrigerated or the AO staining procedure was carried to completion. To stain, 100 μl of a 0.1% acridine orange solution were added to the 1.0 ml spore sample and the dye was allowed to react with the spores for approximately five to eight minutes. Polycarbonate membranes (Poretics®, Osmonics, Livermore Calif.) 25 mm in diameter, 0.2 μm porosity, and black in color were soaked in sterile, distilled water for about 5 to 10 minutes. The membranes were then placed on a millipore filter apparatus. One ml aliquots from control or treated samples which had been stained with AO were placed onto the filters and vacuum was applied. The samples were filtered until the fluid was removed. Then, the filter apparatus container from which the fluid had been removed was rinsed with distilled water to ensure that all cells or spores were impinged upon the filter surface. The filter was laid upon a clean microscope slide, a drop of mineral oil applied to the surface of the membrane, and a clean coverslip was laid onto the membrane.
The AODC slide was examined under a microscope using ultraviolet optics (Olympus VANOX-T equipped for light, phase-contrast, and UV-fluorescence microscopy) which microscope was also fitted with photographic and TV Monitoring equipment. A scaled grid in the eyepiece of the microscope permitted the direct counting of the bacterial spores, bacilli, or other bodies that are stained by the dye and which fluoresce under the UV optics. To determine the number of cells/spores in a sample, the number counted in the entire grid was multiplied by 3.3×10^4 and by any dilution factor of the sample.
as §2, §4, §5

[3] = molecular target: B. subtilis (Difco) spores; experiment: Viable plate counts (CFU) on trypticase soy agar after ozone treatment; format: cell-based, Bacillus subtilis; details: for kill of the spore population / viable spores after treatment / CFU % of AODC / CFU % of Control / CFU/ml: 0.3 ppm ozone; for viable spores after treatment: reduction from 2.1×10^6; for CFU/ml: CFU after 24 hours incubation
Description: Dried spores from the sample vials or glass slides were eluted into sterile distilled water, plated directly, serially diluted (up to 10^−6), and plated onto TSA. After 18 to 24 hours of incubation at 37° C. for B. subtilis and 55° C. for B. stearothermophilus), the viable colony forming units (CFU) were counted. Plates that had no colonies were incubated for several more days (up to 7 days) to ensure that there were no damaged, but viable spores. From each of the same samples, Trypticase Soy broth was inoculated and incubated for up to seven days to ensure that there were no surviving bacteria in the negative assays.
The spores were eluted from the biological indicator slides or scintillation vials into 20 ml of sterile distilled water and 0.1 ml of the sample was spread onto TSA plates.
as §2, §3, §4, §5

[4] = tested on: B. stearothermophilus spores; experiment: Ozone treatment of B. stearothermophilus spores, MALS directly after treatment; format: cell-based, Bacillus stearothermophilus; details: about 0.3 ppm ozone, 5 to 20 min, 0 hours post-treatment
Text: as §1
By the use of toggle switches, the ozone was directed through glass spargers into either of two specifically designated 2-liter Erlenmeyer flasks containing one liter of distilled water. […] The ozone concentrations were measured using chemical oxidation of indigo dye using an Ozone Pocket Colorimeter™ per manufacturer's instructions (HACH, Inc., Loveland, Colo.). Bacillus spores, at a concentration of 2×10^6 spores/milliliter were exposed to ozone for treatment times of 0, 5, 10, 15, 20, and 30 minutes, after which times they were measured by MALS, AODC, and CFU, respectively. […]

B. subtilis = details: 8% humidified ozone sterilization; cited from earlier work
B. stearothermophilus = details: 8% humidified ozone sterilization; cited from earlier work
B. subtilis spores [5] = tested on: B. subtilis spores
Description: The sterilization cycle requires about 70 minutes to complete. […] The STERRAD* employed a non-biological indicator comprising a Chemical Indicator strip supplied by the manufacturer which changed from red to yellow (or lighter) as compared to the color bar on the strip when exposed to H2O2 during the processing cycle. Also, a BI (B. subtilis spore strips) was incubated in a nutrient broth for 7 days to determine successful sterilization.
For all H2O2 sterilized cultures, the BI challenge was one ml of B. subtilis spores at a concentration of 1.7×10^8/ml which were air-dried onto a glass slide as described previously elsewhere herein. After completion of the STERRAD Cycle of approximately 70 minutes, the BI culture was diluted and the cells were suspended in 5% BHI, as described above. The culture was diluted to the same concentration as the control BI and the sample was heat-shocked at 70° C. for 10 minutes and incubated at 37° C. for 24 hours to detect any viable cells present. MALS measurements were obtained at 0 minutes, 30 minutes, 1 hour, 2 hours, 3 hours, 4 hours, and 4.75 hours, and parallel samples were obtained for analysis by AODC direct counting. Direct plating on TSA was also performed to determine the presence of viable cells. […]

B. subtilis spores [6] = experiment: Ethylene oxide sterilization of biological indicator; viability by MALS, AODC and TSA plating; format: cell-based, Bacillus subtilis
Description: The ethylene oxide sterilizer used herein was operated at the Department of Veterans Affairs, Processing & Distribution Section, VAHMCS Baltimore Division (Baltimore, Md.). The sterilizing cycle was fixed to include a 2.5 hour exposure to ethylene oxide followed by a de-gassing cycle of 14.5 hours. A non-biological indicator was used to also monitor the sterilization. A surgicot 2 (Surgicot, Research Triangle Park, N.C.) laminated EO Gas Indicator (Propper Manufacturing Co., Long Island, N.Y.) which registers a change in color after correct processing has been accomplished was used for this purpose.
After completion of the EO sterilization cycle, the BI culture was diluted and the spores were suspended in 5% BHI, as described above. […] Following heat-shock, the sample was incubated at 37° C. for 24 hours to ensure that viable cells could be detected if present. […] Direct plating on TSA was also performed to further determine the presence of viable cells.

## O=[O+][O-] [ozone]
[1]; 5 min treatment
  MALS % of control: 65.33%
[1]; 5 min treatment, log weighted average of intensities at all detectors
  MALS Intensity: 1591.92
[1]; 10 min treatment
  MALS % of control: 51.89%
  MALS Intensity: 1264.26
[1]; 15 min treatment
  MALS % of control: 42.67%
  MALS Intensity: 1039.64
[1]; 20 min treatment
  MALS % of control: 34.94%
  MALS Intensity: 851.5
[1]; 30 min treatment
  MALS % of control: 27.96%
  MALS Intensity: 681.2
[2]; 5 min treatment
  AODC % of control: 68.3%
  AODC Spores per ml: 1.6 × 10^6 spores per ml
[2]; 10 min treatment
  AODC % of control: 49.5%
  AODC Spores per ml: 1.16 × 10^6 spores per ml
[2]; 15 min treatment
  AODC % of control: 55.1%
  AODC Spores per ml: 1.29 × 10^6 spores per ml
[2]; 20 min treatment
  AODC % of control: 20.8%
  AODC Spores per ml: 4.87 × 10^5 spores per ml
[2]; 30 min treatment
  AODC % of control: 21.5%
  AODC Spores per ml: 5.03 × 10^5 spores per ml
[3]; 5 min
  kill of the spore population: 41.4%
  viable spores after treatment: 1.23×10^6 spores/ml
[3]; 5 min treatment
  CFU % of AODC: 76.9%
  CFU % of Control: 58.5%
  CFU/ml: 1.23 × 10^6 CFU/ml
[3]; 10 min treatment
  CFU % of AODC: 14.5%
  CFU % of Control: 8.0%
  CFU/ml: 1.68 × 10^5 CFU/ml
[3]; 15 min
  kill of the spore population: 91%
  viable spores after treatment: 1.8×10^3 spores/ml
[3]; 15 min treatment
  CFU % of AODC: 0.14%
  CFU % of Control: 0.09%
  CFU/ml: 1.80 × 10^3 CFU/ml
[3]; 20 min treatment
  CFU % of AODC: 0.04%
  CFU % of Control: 0.009%
  CFU/ml: 1.82 × 10^2 CFU/ml
[3]; 30 min
  kill of the spore population: 99.995%
  viable spores after treatment: 10 spores/mL
[3]; 30 min treatment
  CFU % of AODC: 0.04%
  CFU % of Control: 0.00005%
  CFU/ml: 10 CFU/ml
[3]; 0.3 ppm×5 min
  CT (concentration x time) value: 1.5
[3]; 0.3 ppm×15 min
  CT (concentration x time) value: 4.5
[3]; 0.3 ppm×30 min
  CT (concentration x time) value: 9
[4]
  change in spore concentrations (MALS): decreases in spore concentrations with increasing exposure to ozone
B. subtilis
  D value (time required to reduce the number of spores by 1 log): 5 minutes
B. stearothermophilus
  D value (time required to reduce the number of spores by 1 log): 4.3 minutes

## OO [H2O2, hydrogen peroxide]
B. subtilis spores [5]; H2O2-sterilized BI after 3 hours of incubation vs control at 0 minutes
  MALS N/No value: 1.0
B. subtilis spores [5]; STERRAD* cycle about 70 minutes, 10 plates on each of triplicate samples
  growth on TSA plates: no growth on any plate

## C1CO1 [EO, ethylene oxide]
B. subtilis spores [6]; EO samples immersed within 10, 50, and 100 ml of water
  bacterial growth of BI immersed in water: all positive for bacterial growth
B. subtilis spores [6]; spores dried on glass slide, 2.5 hour EO exposure, heat-shocked, incubated in 5% BHI
  viable colonies on TSA plates: no viable colonies
B. subtilis spores [6]; spores dried on glass slide, EO cycle, 0 to 4 hours incubation
  AODC direct counts during incubation: no increase in direct counts
